# Experimental data as given in patent publication US6461997B1, “Triazole sulfones having herbicidal activity” (Monsanto Technology LLC, priority 1999, dated 2002).
# Columns and labels:
# SOLNI (black nightshade) = assay: Pre-emergence herbicidal activity, warm season; type: in vivo, Solanum nigrum; settings: GR80 = lowest tested rate (300, 100, 30, 10 g/ha) with 80% or greater inhibition; approx. 14 days after treating; 30/21° C.
# In short: (§1)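 GR80 values derive from percent inhibition relative to untreated plants, read roughly 14 days after sowing and pre-emergence soil-surface treatment (compound in 50:50 acetone/water; rates typically 10, 30, 100, 300 g/ha). Warm-season weeds grew at 30/21° C day/night, cool-season ones at 18/13° C; an asterisk marks activity without reaching 80% at the highest rate.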
# AMARE (redroot pigweed) = assay: Pre-emergence herbicidal activity, warm season; type: in vivo, Amaranthus retroflexus; settings: GR80 = lowest tested rate (300, 100, 30, 10 g/ha) with 80% or greater inhibition; approx. 14 days after treating; 30/21° C.
# In short: as §1
# [1] = tested on: CHEAL (common lambsquarters); assay: Pre-emergence herbicidal activity, warm season; type: in vivo, Chenopodium album; settings: GR80 = lowest tested rate (300, 100, 30, 10 g/ha) with 80% or greater inhibition; approx. 14 days after treating; 30/21° C.
# In short: as §1
# CONAR (field bindweed) = assay: Pre-emergence herbicidal activity, warm season; type: in vivo, Convolvulus arvensis; settings: GR80 = lowest tested rate (300, 100, 30, 10 g/ha) with 80% or greater inhibition; approx. 14 days after treating; 30/21° C.
# Method: (§2) Tables 5 to 8 summarize results of tests conducted as described below to determine the pre-emergence herbicidal activity, in the form of a GR80 value, of illustrative compounds of this invention. […] Compounds of the invention were typically applied at rates of 300, 100, 30, and 10 g/ha. Where herbicidal activity was evident but 80% inhibition was not achieved at the highest rate tested, an asterisk (*) is shown in the following tables.
# (§3) The pre-emergence tests were conducted by the following procedure. Topsoil was sieved to pass through a 1.27 cm screen. Fertilizer was added to the topsoil and the mixture was then sterilized by heating. The topsoil mixture was placed in a pot and compacted to a depth of 1.0 to 1.25 cm from the top of the pot. Seeds of each of several monocotyledonous and dicotyledonous annual plant species were placed on top of the soil. Additional soil was subsequently placed over the seeds to level-fill the pot. A known amount of each test compound dissolved or suspended in an appropriate organic solvent was diluted with a 50:50 mix of acetone and water and applied to the surface of the soil. After treatment the plants were placed in a greenhouse where they received 0.64 cm of overhead irrigation. All subsequent watering consisted of a light overhead mist and/or subirrigation as needed for germination and growth. Tables 5 and 6 below relate to warm season plant species which were placed after pre-emergence treatment in a greenhouse with a 30/21° C. day/night temperature regime. Tables 7 and 8 below relates to cool season plant species placed after pre-emergence treatment in a greenhouse or growth chamber with an 18/13° C. day/night temperature regime.
# (§4) Approximately 14 days after planting and treating, the plants were observed and herbicidal efficacy recorded as percent inhibition by comparison with untreated plants.
# (§5) The plant species usually regarded as weeds which were utilized in the tests are identified in the tables below according to the following legend, in which “d” indicates a dicotyledonous species and “m” a monocotyledonous species. All monocotyledonous species included in the tests herein are grasses.
# POROL (common purslane) = assay: Pre-emergence herbicidal activity, warm season; type: in vivo, Portulaca oleracea; settings: GR80 = lowest tested rate (300, 100, 30, 10 g/ha) with 80% or greater inhibition; approx. 14 days after treating; 30/21° C.
# In short: as §1
# [2] = tested on: CIRAR (canada thistle (seedling)); assay: Pre-emergence herbicidal activity, warm season; type: in vivo, Cirsium arvense; settings: GR80 = lowest tested rate (300, 100, 30, 10 g/ha) with 80% or greater inhibition; approx. 14 days after treating; 30/21° C.
# In short: as §1
# [3] = tested on: PANMI (wild proso millet); assay: Pre-emergence herbicidal activity, warm season; type: in vivo, Panicum miliaceum; settings: GR80 = lowest tested rate (300, 100, 30, 10 g/ha) with 80% or greater inhibition; approx. 14 days after treating; 30/21° C.
# In short: as §1
# [4] = tested on: SORHA (johnsongrass (seedling)); assay: Pre-emergence herbicidal activity, warm season; type: in vivo, Sorghum halepense; settings: GR80 = lowest tested rate (300, 100, 30, 10 g/ha) with 80% or greater inhibition; approx. 14 days after treating; 30/21° C.
# In short: (§6)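 Seeds sown in sterilised fertilised topsoil received surface-applied compound in 50:50 acetone/water, typically at 300, 100, 30 and 10 g/ha, then greenhouse-grown at 30/21° C (warm-season species) or 18/13° C (cool-season species). Percent inhibition versus untreated plants was scored at about 14 days, giving GR80; an asterisk marks activity short of 80% at the top rate.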
# SETFA (giant foxtail) = assay: Pre-emergence herbicidal activity, warm season; type: in vivo, Setaria faberi; settings: GR80 = lowest tested rate (300, 100, 30, 10 g/ha) with 80% or greater inhibition; approx. 14 days after treating; 30/21° C.
# In short: as §6
# SORVU (shattercane) = assay: Pre-emergence herbicidal activity, warm season; type: in vivo, Sorghum vulgare; settings: GR80 = lowest tested rate (300, 100, 30, 10 g/ha) with 80% or greater inhibition; approx. 14 days after treating; 30/21° C.
# In short: as §6
# [5] = tested on: BRAPP (broadleaf signalgrass); assay: Pre-emergence herbicidal activity, warm season; type: in vivo, Brachiaria platyphylla; settings: GR80 = lowest tested rate (300, 100, 30, 10 g/ha) with 80% or greater inhibition; approx. 14 days after treating; 30/21° C.
# In short: as §6
# DIGSA (large crabgrass) = assay: Pre-emergence herbicidal activity, warm season; type: in vivo, Digitaria sanguinalis; settings: GR80 = lowest tested rate (300, 100, 30, 10 g/ha) with 80% or greater inhibition; approx. 14 days after treating; 30/21° C.
# In short: as §1
# [6] = tested on: GALAP (catchweed bedstraw); assay: Pre-emergence herbicidal activity, cool season; type: in vivo, Galium aparine; settings: lowest tested rate with 80% or greater inhibition; rates 300, 100, 30, 10 g/ha; about 14 days
# In short: as §1
# POLCO (wild buckwheat) = assay: Pre-emergence herbicidal activity, cool season; type: in vivo, Polygonum convolvulus; settings: lowest tested rate with 80% or greater inhibition; rates 300, 100, 30, 10 g/ha; about 14 days
# In short: as §1
# SINAR (wild mustard) = assay: Pre-emergence herbicidal activity, cool season; type: in vivo, Sinapis arvensis; settings: lowest tested rate with 80% or greater inhibition; rates 300, 100, 30, 10 g/ha; about 14 days
# In short: as §1
# [7] = tested on: VERPE (creeping speedwell); assay: Pre-emergence herbicidal activity, cool season; type: in vivo, Veronica persicaria; settings: lowest tested rate with 80% or greater inhibition; rates 300, 100, 30, 10 g/ha; about 14 days
# In short: as §1
# SASKR (russian thistle) = assay: Pre-emergence herbicidal activity, cool season; type: in vivo, Salsola kali; settings: lowest tested rate with 80% or greater inhibition; rates 300, 100, 30, 10 g/ha; about 14 days
# In short: as §1
# STEME (common chickweed) = assay: Pre-emergence herbicidal activity, cool season; type: in vivo, Stellaria media; settings: lowest tested rate with 80% or greater inhibition; rates 300, 100, 30, 10 g/ha; about 14 days
# In short: as §1
# [8] = tested on: LAMPU (purple deadnettle); assay: Pre-emergence herbicidal activity, cool season; type: in vivo, Lamium purpureum; settings: lowest tested rate with 80% or greater inhibition; rates 300, 100, 30, 10 g/ha; about 14 days
# In short: as §1
# ALOMY (blackgrass) = assay: Pre-emergence herbicidal activity, cool season; type: in vivo, Alopecurus myosuroides; settings: GR80 = lowest tested rate (300, 100, 30, 10 g/ha) with 80% or greater inhibition; approx. 14 days after treating; 18/13° C.
# In short: as §1
# SETVI (green foxtail) = assay: Pre-emergence herbicidal activity, cool season; type: in vivo, Setaria viridis; settings: GR80 = lowest tested rate (300, 100, 30, 10 g/ha) with 80% or greater inhibition; approx. 14 days after treating; 18/13° C.
# In short: as §1
# [9] = tested on: AGSST (creeping bentgrass); assay: Pre-emergence herbicidal activity, cool season; type: in vivo, Agrostis stolonifera; settings: GR80 = lowest tested rate (300, 100, 30, 10 g/ha) with 80% or greater inhibition; approx. 14 days after treating; 18/13° C.
# In short: as §1
# ABUTH (velvetleaf) = assay: Pre-emergence herbicidal activity, warm season; type: in vivo, Abutilon theophrasti; settings: GR80 = lowest tested rate (300, 100, 30, 10 g/ha) with 80% or greater inhibition; approx. 14 days after treating; 30/21° C.
# Method: as §2, §3, §4, §5
# DATST (jimsonweed) = assay: Pre-emergence herbicidal activity, warm season; type: in vivo, Datura stramonium; settings: GR80 = lowest tested rate (300, 100, 30, 10 g/ha) with 80% or greater inhibition; approx. 14 days after treating; 30/21° C.
# Method: as §2, §3, §4, §5
structure (smiles),measurement,setting,value
O=C(N1CCCC1)n1cnc(S(=O)(=O)C(F)(F)Cl)n1 [Example 83],Pre-emergence activity (GR80) SOLNI,SOLNI (black nightshade),300 g/ha
same,Pre-emergence activity (GR80) AMARE,AMARE (redroot pigweed),300 g/ha
same,Pre-emergence activity (GR80) CHEAL,[1],100 g/ha
same,Pre-emergence activity (GR80) CONAR,CONAR (field bindweed),300 g/ha
same,Pre-emergence activity (GR80) POROL,POROL (common purslane),100 g/ha
same,Pre-emergence activity (GR80) CIRAR,[2],100 g/ha
same,Pre-emergence activity (GR80) PANMI,[3],100 g/ha
same,Pre-emergence activity (GR80) SORHA,[4],300 g/ha
same,Pre-emergence activity (GR80) SETFA,SETFA (giant foxtail),300 g/ha
same,Pre-emergence activity (GR80) SORVU,SORVU (shattercane),300 g/ha
same,Pre-emergence activity (GR80) BRAPP,[5],100 g/ha
same,Pre-emergence activity (GR80) DIGSA,DIGSA (large crabgrass),100 g/ha
same,"Pre-emergence activity GR80, GALAP",[6],100 g/ha
same,"Pre-emergence activity GR80, POLCO",POLCO (wild buckwheat),300 g/ha
same,"Pre-emergence activity GR80, SINAR",SINAR (wild mustard),[empty]
same,"Pre-emergence activity GR80, VERPE",[7],[empty]
same,"Pre-emergence activity GR80, SASKR",SASKR (russian thistle),300 g/ha
same,"Pre-emergence activity GR80, STEME",STEME (common chickweed),300 g/ha
same,"Pre-emergence activity GR80, LAMPU",[8],100 g/ha
same,Pre-emergence activity (GR80) ALOMY,ALOMY (blackgrass),300 g/ha
same,Pre-emergence activity (GR80) SETVI,SETVI (green foxtail),300 g/ha
same,Pre-emergence activity (GR80) AGSST,[9],100 g/ha
CCN(CC)C(=S)n1cnc(S(=O)(=O)C(F)(F)Cl)n1 [Example 94],Pre-emergence activity (GR80) ABUTH,ABUTH (velvetleaf),100 g/ha
same,Pre-emergence activity (GR80) SOLNI,SOLNI (black nightshade),100 g/ha
same,Pre-emergence activity (GR80) AMARE,AMARE (redroot pigweed),10 g/ha
same,Pre-emergence activity (GR80) DATST,DATST (jimsonweed),300 g/ha
same,Pre-emergence activity (GR80) CHEAL,[1],30 g/ha
same,Pre-emergence activity (GR80) CONAR,CONAR (field bindweed),100 g/ha
same,Pre-emergence activity (GR80) POROL,POROL (common purslane),30 g/ha
same,Pre-emergence activity (GR80) CIRAR,[2],30 g/ha
same,Pre-emergence activity (GR80) PANMI,[3],100 g/ha
same,Pre-emergence activity (GR80) SORHA,[4],300 g/ha
same,Pre-emergence activity (GR80) SETFA,SETFA (giant foxtail),100 g/ha
same,Pre-emergence activity (GR80) SORVU,SORVU (shattercane),100 g/ha
same,Pre-emergence activity (GR80) BRAPP,[5],10 g/ha
same,Pre-emergence activity (GR80) DIGSA,DIGSA (large crabgrass),300 g/ha
same,"Pre-emergence activity GR80, GALAP",[6],[empty]
same,"Pre-emergence activity GR80, POLCO",POLCO (wild buckwheat),10 g/ha
same,"Pre-emergence activity GR80, SINAR",SINAR (wild mustard),[empty]
same,"Pre-emergence activity GR80, VERPE",[7],[empty]
same,"Pre-emergence activity GR80, SASKR",SASKR (russian thistle),[empty]
same,"Pre-emergence activity GR80, STEME",STEME (common chickweed),300 g/ha
same,"Pre-emergence activity GR80, LAMPU",[8],300 g/ha
same,Pre-emergence activity (GR80) ALOMY,ALOMY (blackgrass),10 g/ha
same,Pre-emergence activity (GR80) AGSST,[9],300 g/ha
